Source: ChEMBL document CHEMBL1137802, “Specific antioxidant activity of caffeoyl derivatives and other natural phenolic compounds: LDL protection against oxidation and decrease in the proinflammatory lysophosphatidylcholine production” (J Nat Prod, 2001)

Assays:
Assay type in all cases: functional, cell-free
[1] = Antioxidant activity against Cu2+-induced lipid peroxidation in human plasma LDL preincubated for 1 hr before Cu2+ challenge
[2] = Antioxidant activity against Cu2+-induced lipid peroxidation in human plasma LDL assessed as conjugated diene formation at 5 umol/L preincubated for 1 hr before Cu2+ challenge measured after 60 mins
[3] = Antioxidant activity against Cu2+-induced lipid peroxidation in human plasma LDL assessed as conjugated diene formation at 5 umol/L preincubated for 1 hr before Cu2+ challenge measured after 90 mins
[4] = Antioxidant activity against Cu2+-induced lipid peroxidation in human plasma LDL assessed as conjugated diene formation at 5 umol/L preincubated for 1 hr before Cu2+ challenge measured after 120 mins
[5] = Antioxidant activity against Cu2+-induced lipid peroxidation in human plasma LDL assessed as conjugated diene formation at 5 umol/L preincubated for 1 hr before Cu2+ challenge measured after 360 mins
[6] = Antioxidant activity against Cu2+-induced lipid peroxidation in human plasma LDL assessed as maximal compound concentration at 10 umol/L preincubated for 1 hr before Cu2+ challenge measured after 180 mins relative to compound present at 0 min
[7] = Antioxidant activity against Cu2+-induced lipid peroxidation in human plasma LDL assessed as maximal compound concentration at 10 umol/L preincubated for 1 hr before Cu2+ challenge measured after 210 mins relative to compound present at 0 min
[8] = Antioxidant activity against Cu2+-induced lipid peroxidation in human plasma LDL assessed as maximal compound concentration at 10 umol/L preincubated for 1 hr before Cu2+ challenge measured after 270 mins relative to compound present at 0 min
[9] = Antioxidant activity against Cu2+-induced lipid peroxidation in human plasma LDL assessed as lysophosphatidylcholine formation at 10 umol/L preincubated for 1 hr before Cu2+ challenge measured after 270 mins
[10] = Antioxidant activity against Cu2+-induced lipid peroxidation in human plasma LDL assessed as vitamin E consumption at 10 umol/L preincubated for 1 hr before Cu2+ challenge measured after 15 mins
[11] = Antioxidant activity against Cu2+-induced lipid peroxidation in human plasma LDL assessed as vitamin E consumption at 10 umol/L preincubated for 1 hr before Cu2+ challenge measured after 60 mins
[12] = Antioxidant activity against Cu2+-induced lipid peroxidation in human plasma LDL assessed as vitamin E consumption at 10 umol/L preincubated for 1 hr before Cu2+ challenge measured after 270 mins
[13] = Antioxidant activity against Cu2+-induced lipid peroxidation in human plasma LDL assessed as maximal compound concentration at 10 umol/L preincubated for 1 hr before Cu2+ challenge measured after 15 mins relative to compound present at 0 min
[14] = Antioxidant activity against Cu2+-induced lipid peroxidation in human plasma LDL assessed as maximal compound concentration at 10 umol/L preincubated for 1 hr before Cu2+ challenge measured after 30 mins relative to compound present at 0 min
[15] = Antioxidant activity against Cu2+-induced lipid peroxidation in human plasma LDL assessed as maximal compound concentration at 10 umol/L preincubated for 1 hr before Cu2+ challenge measured after 45 mins relative to compound present at 0 min
[16] = Antioxidant activity against Cu2+-induced lipid peroxidation in human plasma LDL assessed as maximal compound concentration at 10 umol/L preincubated for 1 hr before Cu2+ challenge measured after 60 mins relative to compound present at 0 min
[17] = Antioxidant activity against Cu2+-induced lipid peroxidation in human plasma LDL assessed as maximal compound concentration at 10 umol/L preincubated for 1 hr before Cu2+ challenge measured after 90 mins relative to compound present at 0 min
[18] = Antioxidant activity against Cu2+-induced lipid peroxidation in human plasma LDL assessed as conjugated diene formation at 20 umol/L preincubated for 1 hr before Cu2+ challenge measured after 90 mins
[19] = Antioxidant activity against Cu2+-induced lipid peroxidation in human plasma LDL assessed as conjugated diene formation at 20 umol/L preincubated for 1 hr before Cu2+ challenge measured after 180 mins
[20] = Antioxidant activity against Cu2+-induced lipid peroxidation in human plasma LDL assessed as conjugated diene formation at 20 umol/L preincubated for 1 hr before Cu2+ challenge measured after 360 mins
[21] = Antioxidant activity against Cu2+-induced lipid peroxidation in human plasma LDL assessed as lysophosphatidylcholine formation at 20 umol/L preincubated for 1 hr before Cu2+ challenge measured after 150 mins
[22] = Antioxidant activity against Cu2+-induced lipid peroxidation in human plasma LDL assessed as lysophosphatidylcholine formation at 20 umol/L preincubated for 1 hr before Cu2+ challenge measured after 180 mins
[23] = Antioxidant activity against Cu2+-induced lipid peroxidation in human plasma LDL assessed as lysophosphatidylcholine formation at 20 umol/L preincubated for 1 hr before Cu2+ challenge measured after 360 mins
[24] = Antioxidant activity against Cu2+-induced lipid peroxidation in human plasma LDL assessed as vitamin E consumption at 20 umol/L preincubated for 1 hr before Cu2+ challenge measured after 60 mins
[25] = Antioxidant activity against Cu2+-induced lipid peroxidation in human plasma LDL assessed as vitamin E consumption at 20 umol/L preincubated for 1 hr before Cu2+ challenge measured after 150 mins
[26] = Antioxidant activity against Cu2+-induced lipid peroxidation in human plasma LDL assessed as vitamin E consumption at 20 umol/L preincubated for 1 hr before Cu2+ challenge measured after 210 mins
[27] = Antioxidant activity against Cu2+-induced lipid peroxidation in human plasma LDL assessed as maximal compound concentration at 20 umol/L preincubated for 1 hr before Cu2+ challenge measured after 150 mins relative to compound present at 0 min
[28] = Antioxidant activity against Cu2+-induced lipid peroxidation in human plasma LDL assessed as maximal compound concentration at 20 umol/L preincubated for 1 hr before Cu2+ challenge measured after 180 mins relative to compound present at 0 min
[29] = Antioxidant activity against Cu2+-induced lipid peroxidation in human plasma LDL assessed as maximal compound concentration at 20 umol/L preincubated for 1 hr before Cu2+ challenge measured after 210 mins relative to compound present at 0 min
[30] = Antioxidant activity against Cu2+-induced lipid peroxidation in human plasma LDL assessed as conjugated diene formation preincubated for 1 hr before Cu2+ challenge
[31] = Antioxidant activity against Cu2+-induced lipid peroxidation in human plasma LDL assessed as vitamin E consumption at 5 umol/L preincubated for 1 hr before Cu2+ challenge measured after 90 mins
[32] = Antioxidant activity against Cu2+-induced lipid peroxidation in human plasma LDL assessed as maximal compound concentration at 5 umol/L preincubated for 1 hr before Cu2+ challenge measured after 60 mins relative to compound present at 0 min
[33] = Antioxidant activity against Cu2+-induced lipid peroxidation in human plasma LDL assessed as maximal compound concentration at 5 umol/L preincubated for 1 hr before Cu2+ challenge measured after 150 mins relative to compound present at 0 min
[34] = Antioxidant activity against Cu2+-induced lipid peroxidation in human plasma LDL assessed as lysophosphatidylcholine formation at 10 umol/L preincubated for 1 hr before Cu2+ challenge measured after 60 mins

CC(C)(Sc1cc(C(C)(C)C)c(O)c(C(C)(C)C)c1)Sc1cc(C(C)(C)C)c(O)c(C(C)(C)C)c1
Activity [1]: 5.8 µM/L
Activity [2]: 4.1%
Activity [3]: 37.9%
Activity [4]: 78.6%
Activity [5]: 100%
Activity [6]: 31.2%
Activity [7]: 21.6%
Activity [8]: 15.8%
Activity [9]: 12.9%
Activity [10]: 51.8%
Activity [11]: 0%
Activity [12]: 0%
Activity [13]: 86.6%
Activity [14]: 82%
Activity [15]: 73%
Activity [16]: 34.1%
Activity [17]: 27.2%
Activity [18]: 0.7%
Activity [19]: 2.6%
Activity [20]: 2.3%
Activity [21]: 1.3%
Activity [22]: 1.5%
Activity [23]: 1.9%
Activity [24]: 5.5%
Activity [25]: 0%
Activity [26]: 0%
Activity [27]: 41.2%
Activity [28]: 34.4%
Activity [29]: 38.3%
Activity [30]: Dose-dependent effect
Activity [31]: 0%
Activity [32]: 118%
Activity [33]: 28.6%
Activity [34]: 0.7%
